“And” between values parts separate entries of the source, which are not always exact repeats. Equal entries are not always repeated. Where two headings read alike, the source gives them in different places. Marks after values point to notes of the source that are not given here.
Assays:
[1] = target: T1, hCB1 receptor (Homo sapiens, UniProt P21554); assay: competitive [3H]CP‐55940 radioligand binding assay (hCB1 receptor affinity); details: [3H]CP‐55940 competition, hCB1 membrane preparations (HEK293‐EBNA), Cheng–Prusoff, 95% CI in brackets
Description: (§1) Receptor assays were performed on three different days and each concentration was tested in duplicate.
From the IC50, the respective Ki values were calculated using the Cheng–Prusoff equation [39].

[2] = target: T1, hCB1 receptor; assay: functional [35S]GTPγS hCB1 activation assay; format: biochemical; details: for Emax: read-out: [35S]‐GTPγS assay Emax [%] (95% CI)
Description: as §1

[3] = risk score from prevalence in routine forensic samples and intoxication cases (G1, PSS, TSS); parameters: species or system human; details: for G total (risk score): G1+G2+G3, higher value = greater toxicological risk; for G2: mean Poison Severity Score (PSS) of all intoxications with the SCRA; for G3: mean Toxicological Significance Score (TSS) of all intoxications with the SCRA; for G1: proportion in intoxication cases relative to prevalence in routine serum/blood and urine samples per quarter, 2013–2021, >1 over‐represented in intoxications
Excerpt: Therefore, higher values indicate substances with a higher risk. […] To take into account the severity of symptoms and the contribution of the specific NPS, two further summands were introduced. The first is based on the PSS, the second on the TSS. Again, higher values were associated with more severe symptoms and a stronger role of the NPS in causing the symptoms.
The risk score is composed of three components (parts G1, G2 and G3) and was designed as follows: (1) Gx=G1x+G2x+G3x,
Equation 2 takes into consideration several components: the number of intoxications with SCRA x in quarter k over the total number of intoxications of all investigated SCRAs in the same quarter; the number of serum/blood samples positive for SCRA x over the total number of serum/blood samples positive for all SCRAs plus the number of urine samples positive for SCRA x over the total number of urine samples positive for all SCRAs (this is divided by two to account for the two different sample types); and the number of quarters in which the SCRA x was prevalent. (2) G1x=∑k=1gak/bk/ck/dk+ek/fk/2/h+i
Consequently, equation 2 was mathematically rearranged. To further simplify the equation and reduce the formula signs, in equation 3 the following simplifications were taken: a/b=ai , c/d=as and e/f=au .
The sum of these quotients was divided by the number of all prevalent quarters (q p ). Prevalent quarters were defined as quarters in which on average the substance was detected in more than 5% of the positive serum and urine samples. If a poisoning occurred in a quarter in which the substance was not prevalent, the number of these quarters was added (q i ). This part of the score has similarities with an OR [42]. If the proportion of routine samples in a given quarter in which an intoxication with the respective substance occurred was zero (a s + a u = 0), a value of 0.01 was used for that quarter in the calculation of the quotient to avoid division by zero.
For part G2, the severity of the intoxication caused by the respective SCRA x was assessed on the basis of reported symptoms and follow‐up information using the PSS [20]. The PSS classifies the intoxication severity into five levels: (0) no, (1) mild, (2) moderate, (3) severe, and (4) fatal intoxication. […] For this purpose, the mean value of the PSS of all intoxications with the respective SCRA x was calculated ( G2x) .
For part G3, the involvement of the SCRA in the respective intoxications was assessed. This was evaluated on the basis of the TSS [21]. Elliott et al. developed the TSS to assess and classify the contribution of NPS in fatalities. In the present study, the TSS was determined to weigh the involvement of the investigated SCRA in the intoxication and the contribution of the SCRA to the observed symptoms. To determine the TSS value, factors such as the determined concentration of the SCRA, the presence of other recreational drugs or medicinal drugs, the general health of the patient and the consumption circumstances need to be considered. […] In cases with more than one drug detected, a TSS of 3 was only assigned where other compounds were present at concentrations below the range in which relevant effects are to be expected.
For the risk score, the mean value of the TSS of all intoxications with substance x was calculated ( G3x) . Analogous to the value of G2x , the value of G3x can theoretically be between 1 and 3. With a value of ‘1’, substance x was not mainly responsible for the symptoms in all of the intoxications (low level of significance), and with a value of ‘3’, it was the main cause in every poisoning in which it was detected.

[4] = occurrence of SCRAs in intoxication samples of the prospective study; parameters: species or system human; details: 2013 to 2021; for No. of intoxications: 139 intoxication samples of the prospective study; for Percentage in %: proportion of 139 intoxications in which the substance was detected
Excerpt: For this study, the 10 SCRAs (AB‐[…], ADB‐[…], AB‐FUBINACA, FUB‐AMB, Cumyl‐PEGACLONE, MDMB‐4en‐PINACA, MDMB‐CHMICA, 5F‐MDMB‐PICA, 5F‐ADB and 5F‐PB‐22) which were most frequently detected in intoxications in a prospective observational study during the time period of 2013 to 2021 were selected (see Table 1). Additionally, JWH‐210, a model compound representative of the early SCRAs, along with two substances prevalent in screenings during years 2019/2020 (5F‐Cumyl‐PEGACLONE and 4F‐MDMB‐BICA), were included in this study (see Tables S2–S7). […] JWH‐018 was also included as a reference compound because of its historical use in this capacity. Including both reference compounds facilitates direct comparison with previously published data, thereby enhancing the relevance and interpretability of the results obtained in the present study. Information on the origin of the test and reference compounds and all chemicals used in this study can be found in Table S1.
The data on intoxication cases used for the development of this risk score were obtained from a prospective study. This study included patients who were treated in an emergency department room following the consumption of an NPS. Clinical symptoms and follow‐up information were documented using a structured questionnaire completed by the attending physicians. The methodology has been previously published. Residual serum (obtained from venous blood) and urine samples, accompanied by the completed questionnaires, were sent to the Poisons Information Center Freiburg for further analysis. The toxicological analyses of serum and urine samples were conducted at the Institute of Forensic Medicine Freiburg. No data was available on previous consumption patterns or potential development of tolerance after continued misuse. The study was conducted in accordance with the Declaration of Helsinki and approved by the regional ethics committee of the University of Freiburg (no. 235/13_130683). The intoxication cases included in this study are those in which SCRA use was confirmed by liquid chromatography tandem mass spectrometry (LC–MS/MS).

[5] = target: T1, hCB1 receptor
[6] = read-out: βarr2 assay EC50 [nM] (95% CI); ref Janssens et al. [43]; cited from earlier work
[7] = relative to CP‐55940; originally normalised to JWH‐018, corrected with factor 0.3268; ref Janssens et al. [43]; cited from earlier work
[8] = relative to CP‐55940; ref Grafinger et al. [27]; cited from earlier work

T1 sequence (P21554 whole entry): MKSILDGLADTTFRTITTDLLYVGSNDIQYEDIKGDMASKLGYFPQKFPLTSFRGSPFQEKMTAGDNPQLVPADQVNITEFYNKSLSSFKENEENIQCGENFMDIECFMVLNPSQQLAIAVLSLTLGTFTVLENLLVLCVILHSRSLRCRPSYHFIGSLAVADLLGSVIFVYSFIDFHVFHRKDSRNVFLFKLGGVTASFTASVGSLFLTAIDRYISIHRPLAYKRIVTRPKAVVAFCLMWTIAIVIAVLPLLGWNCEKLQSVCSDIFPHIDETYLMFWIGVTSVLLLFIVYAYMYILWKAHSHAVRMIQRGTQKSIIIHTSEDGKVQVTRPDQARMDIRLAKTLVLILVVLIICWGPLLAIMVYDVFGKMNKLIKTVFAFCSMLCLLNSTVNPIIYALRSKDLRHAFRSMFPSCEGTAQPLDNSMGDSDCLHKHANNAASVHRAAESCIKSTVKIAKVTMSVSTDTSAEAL

SMILES | Ki ([1]; Ki [nM] (95% CI)) | EC50 [2] [nM] | Emax [2] [%] | G total (risk score) [3] | G2 [3] | G3 [3] | G1 [3] | No. of intoxications [4] | Percentage in % [4] [%] | also measured
CC(C)(c1ccccc1)n1ccc2c(c1=O)c1ccccc1n2CCCCCF [5F‐Cumyl‐PEGACLONE] | 0.0991 nM | 1.64 | 105 | 3.1 | 2.0 | 1.0 | 0.11 | 1 | 0.72 | EC50 [5, 6]: 0.58 nM; βarr2 assay Emax [%] (95% CI) [5, 7]: 1089 (988.4–1190) ^a %
CC(C)C(NC(=O)c1nn(Cc2ccc(F)cc2)c2ccccc12)C(N)=O (stereo not shown) [AB‐FUBINACA] | 0.385 nM | 17.5 | 114 |  |  |  |  |  |  | EC50 ([5]; read-out: βarr2 assay EC50 [nM] (95% CI); ref Noble et al. [30]; cited from earlier work): 15.6 nM; βarr2 assay Emax [%] (95% CI) ([5]; relative to CP‐55940; originally normalised to JWH‐018, corrected with factor 0.3268; ref Noble et al. [30]; cited from earlier work): 990.5 (922.9–1059) ^a %
CC(C)(C)C(NC(=O)c1nn(CC2CCCCC2)c2ccccc12)C(N)=O (stereo not shown) | 0.0229 nM and 0.0231 nM | 0.467 | 124 | 7.1 | 2.1 | 2.7 | 2.3 | 18 | 13 | EC50 ([5]; read-out: βarr2 assay EC50 [nM] (95% CI); ref Wouters et al. [29]; cited from earlier work): 0.34 nM; βarr2 assay Emax [%] (95% CI) ([5]; relative to CP‐55940; originally normalised to JWH‐018, corrected with factor 0.3268; ref Wouters et al. [29]; cited from earlier work): 803.6 ^a (724.3–921.4) %
COC(=O)C(NC(=O)c1cn(CCCCF)c2ccccc12)C(C)(C)C (stereo not shown) [4F‐MDMB‐BICA] | 5.67 nM | 137 | 104 | 5.5 | 2.0 | 3.0 | 0.48 | 2 | 1.4 | EC50 ([5]; read-out: βarr2 assay EC50 [nM] (95% CI); ref Cannaert et al. [44]; cited from earlier work): 121 nM; βarr2 assay Emax [%] (95% CI) ([5]; relative to CP‐55940; originally normalised to JWH‐018, corrected with factor 0.3268; ref Cannaert et al. [44]; cited from earlier work): 774.2 (685.4–911.9) ^a %
C=CCCCn1nc(C(=O)NC(C(=O)OC)C(C)(C)C)c2ccccc21 (stereo not shown) [MDMB‐4en‐PINACA] |  | 13.4 | 114 | 6.8 | 2.2 | 3.0 | 1.6 | 6 | 4.3 | EC50 ([5]; ref Grafinger et al. [27]; read-out: βarr2 assay EC50 [nM] (95% CI); cited from earlier work): 1.88 nM; βarr2 assay Emax [%] (95% CI) [5, 8]: 679 (623–730) %
CCCCCCC(C)(C)c1ccc([C@@H]2C[C@H](O)CC[C@H]2CCCO)c(O)c1 [CP‐55940, reference compound] |  |  | 96.9 |  |  |  |  |  |  | 
CCCCCn1cc(C(=O)c2cccc3ccccc23)c2ccccc21 [JWH‐018, reference compound] | 2.86 nM | 38.6 | 118 |  |  |  |  |  |  | βarr2 assay Emax [%] (95% CI) [5, 8]: 306 ^b (281–333) %
CCCCCn1c2ccccc2c2c(=O)n(C(C)(C)c3ccccc3)ccc21 [Cumyl‐PEGACLONE] | 0.242 nM | 12.4 | 117 | 4.5 | 2.0 | 2.2 | 0.32 | 5 | 3.6 | EC50 [5, 6]: 0.23 nM; βarr2 assay Emax [%] (95% CI) [5, 7]: 1053 (960.8–1148) ^a %
COC(=O)C(NC(=O)c1nn(CCCCCF)c2ccccc12)C(C)(C)C (stereo not shown) [5F‐ADB] | 0.0993 nM | 1.95 | 103 | 6.9 | 1.9 | 2.6 | 2.5 | 33 | 24 | EC50 ([5]; ref Wouters et al. [29]; read-out: βarr2 assay EC50 [nM] (95% CI); cited from earlier work): 0.84 nM
CCCCCn1cc(C(=O)c2ccc(CC)c3ccccc23)c2ccccc21 [JWH‐210] |  | 41.9 | 93.4 | 5.7 | 1.6 | 2.7 | 1.4 | 3 | 2.2 | Ki ([1]; read-out: Ki [nM] (95% CI)): 1.43 nM; EC50 ([5]; read-out: βarr2 assay EC50 [nM] (95% CI); ref Cannaert et al. [45]; cited from earlier work): 25.3 nM; βarr2 assay Emax [%] (95% CI) ([5]; relative to CP‐55940; originally normalised to JWH‐018, corrected with factor 0.3268; ref Cannaert et al. [45]; cited from earlier work): 714.2 (672.3–759.5) ^a ^, ^i %

From PMC12980303, “Development of a novel risk score reflecting the relative harm potential of synthetic cannabinoids based on prevalence estimates, well‐documented intoxication cases and basic pharmacological data” (Addiction (Abingdon, England), 2025)
